According to the NIST ThermoML archive (doi:10.1021/acs.jced.5b00922):
± gives the expanded uncertainty stated by the source.

Legend:
[1] = Liquid; for viscosity: Capillary tube (Ostwald / Ubbelohde) method; for mass density: Pycnometric method
[2] = wn = mass fraction of the nth substance listed; settings: 100 kPa, Liquid; for viscosity: Capillary tube (Ostwald / Ubbelohde) method; for mass density: Pycnometric method
[3] = mn = molality of the nth substance listed, in mol/kg; settings: 100 kPa, Liquid, m1 = 4.416; for viscosity: Capillary tube (Ostwald / Ubbelohde) method; for mass density: Pycnometric method; for binary diffusion coefficient: absorption column

CN(CCO)CCO [N-methyldiethanolamine]
[1], 100 kPa
Settings | mass density [kg/m3] | viscosity [mPa·s]
298 K | 1036.7 ± 4.8 | 77.6 ± 1.9
308 K | 1029.4 ± 4.8 | 44.33 ± 1.2
323 K | 1018.5 ± 4.9 | 22.3 ± 0.78

CN(CCO)CCO [N-methyldiethanolamine] + O
[2]
Settings | mass density, w1 = 0.1 [kg/m3] | mass density, w1 = 0.2 [kg/m3] | mass density, w1 = 0.3 [kg/m3] | mass density, w1 = 1 [kg/m3] | viscosity, w1 = 0.1 [mPa·s] | viscosity, w1 = 0.2 [mPa·s] | viscosity, w1 = 0.3 [mPa·s] | viscosity, w1 = 1 [mPa·s]
298 K | 1005.7 ± 4.7 | 1015 ± 4.7 | 1024.6 ± 4.7 | 1036.7 ± 4.8 | 1.295 ± 0.1 | 1.925 ± 0.11 | 3.031 ± 0.11 | 77.6 ± 1.9
308 K | 1001.9 ± 4.7 | 1010.9 ± 4.7 | 1020.2 ± 4.7 | 1029.4 ± 4.8 | 1.007 ± 0.1 | 1.468 ± 0.1 | 2.251 ± 0.11 | 44.33 ± 1.2
323 K | 995.9 ± 4.7 | 1003.4 ± 4.7 | 1012 ± 4.7 | 1018.5 ± 4.9 | 0.748 ± 0.1 | 1.033 ± 0.1 | 1.491 ± 0.11 | 22.3 ± 0.78

[3]
Settings | binary diffusion coefficient [m2/s] | mass density [kg/m3] | viscosity [mPa·s]
298 K | 8.2e-10 | 1036.91 ± 4.5 | 3.851 ± 0.091
303 K | 9.5e-10 | 1034.27 ± 4.4 | 3.22 ± 0.091
308 K | 1.09e-09 | 1030.94 ± 4.5 | 2.7 ± 0.086
313 K | 1.24e-09 | 1027.61 ± 4.5 | 2.215 ± 0.08
318 K | 1.37e-09 | 1024.05 ± 4.5 | 1.89 ± 0.075
323 K | 1.54e-09 | 1020.68 ± 4.5 | 1.62 ± 0.07

NCCCNCCCN [bis(3-aminopropyl)amine]
[1], 101.33 kPa
Settings | mass density [kg/m3] | viscosity [mPa·s]
298 K | 927.36 ± 4.2 | 8.51 ± 0.15
303 K | 923.34 ± 4.2 | 7.04 ± 0.14
308 K | 919.32 ± 4.2 | 5.92 ± 0.13
313 K | 915.28 ± 4.2 | 5.05 ± 0.13
318 K | 911.18 ± 4.2 | 4.62 ± 0.12
323 K | 906.97 ± 4.2 | 3.99 ± 0.12
